Measured values taken from USRE48253E1, “Methotrexate adjuvants to reduce toxicity and methods for using the same” (Tosk, Inc., priority 2008, dated 2020).

Experiments:
CCRF-CEM cells = assay: Cell Culture Study I: MTX cytotoxicity, alamarBlue; type: cell-based, human; conditions: 72 hours
Experimental: In this study, CCRF-CEM cells purchased from ATCC were cultured and then 12 tubes containing approximately 10^6 cells each treated for 72 hours with media (Group1), MTX 0.03 μM (Group2), MTX+Leucovorin 1 μM (Group3), MTX+Leucovorin 10 μM (Group4), MTX+Leucovorin 100 μM (Group5), MTX+TK-112690 1 μM (Group6), MTX+TK-112690 10 μM (Group7) and MTX+TK-112690 100 μM (Group8). […] Viability was measured as percent reduction of alamarBlue absorbance.
The tumor cell line CCR-CEM (human T-cell acute lymphoblastic leukemia) is obtained from American Type Culture Collection (CRL-1593.2) and cultured in accordance with the product information sheet with the following exceptions: 55.3 cm^2 Petri dishes are used instead of 75 cm^2 culture flasks, and 1% penicillin-streptomycin solution (HyClone SV30010) and 1% GlutaMAX™ (Gibco 35050) are added to the culture medium.
TK-112690, the representative 2,2′-anhydropyrimidine test article, is dissolved in 40% DMSO, sterile filtered then diluted with sterile distilled water to obtain initial working solutions of 10, 100 and 1000 μM. In testing, a 100 fold dilution is made in culture media to give final assay concentrations of 0.1, 1.0 and 10.0 μM. MTX (SAFC Biosciences M8407) is dissolved in sterile distilled water and 5 N NaOH then sterile filtered. The final pH of the stock solution is 7.8 and working solutions are made with sterile distilled water for final assay concentrations of 30, 3.0, 0.3, 0.03 and 0.003 μM. Leucovorin (Sigma F-7878) is dissolved in sterile distilled water, sterile filtered and diluted with sterile distilled water for final assay concentrations of 0.1, 1.0 and 10.0 μM.
Aliquots of 100 μL of cell suspension are plated in 96 well microtiter plates (Corning costar 3595) and placed in an atmosphere of 5% CO2 at 37° C. (Fisher Scientific Isotemp 3500 CO2 Incubator). After 24 hours, 100 μL of growth medium [RPMI-1640 w/L-glutamine (Cambrex 12-702Q) fortified with sodium pyruvate (HyClone SH30239.01), fetal bovine serum (SAFC Biosciences 12107C) and HEPES buffer (Gibco 15630)] and 2 μL of test solution or vehicle are added respectively per well and the plates incubated for an additional 72 hour incubation. MTX is evaluated at concentrations of 0.003, 0.03, 0.30 and 3.0 μM alone or in combination with either a 2,2′-anhydropyrimidine test article or Leucovorin at concentrations of 0.1, 1.0, 10.0 μM. At the end of incubation, the efficacy of anti-cell proliferation is determined by optical absorbance at λ=570 and 600 nm [Spectramax 250 (Molecular Devices)] in accordance with the standard alamarBlue™ (Biosource) protocol.
Group 1 is the cell control (media treated). Group 2 corresponds to cells treated with 0.03 μM MTX. Group 3 are cells treated with 1.0 μM Leucovorin. Group 4 are cells treated with 0.1 μM Leucovorin. Group 5 are cells treated with 10 μM TK-112690. Group 6 are cells treated with MTX+10 μM TK-112690. Group 7 are cells treated with MTX+1.0 μM TK-112690. Group 8 MTX+0.1 μM TK-112690.

[1] = test system: UPase knockout (19519) Drosophila melanogaster; assay: Fly Study II: MTX lethality in UPase knockout flies; type: in vivo
Experimental: (§1) Embryos of UPase knockout (19519) Drosophila melanogaster were orally exposed to a dose range of MTX doses in food admix. Embryos of Wild-type (Oregon-R) were orally exposed to the same dose range of MTX in presence and absence of 0.04 mg TK-112690. Scoring was based on life or death 15 days after initiation of MTX exposure. […] Wild-type D. melanogaster are sensitive to lethal effects of ≥0.1 mg MTX.
(§2) The aim of this study was to evaluate the lethal effects of a range (0.001, 0.01, 0.05, 0.1, 0.2, 0.4 mg) of doses of orally fed MTX in wild-type (Ore-R) and UPase mutant Drosophila melanogaster. Embryos of UPase knockout (19519) Drosophila melanogaster were orally exposed to a dose range of MTX (0.001, 0.01, 0.05, 0.1, 0.2, 0.4 mg) in food admix. Embryos of Wild-type (Oregon-R) were orally exposed to the same dose range of MTX in presence and absence of 0.04 mg TK-112690. Scoring was based on life or death 15 days after initiation of MTX exposure.

C57BL/6 mice = assay: Mouse Study III: MTX-induced infection measured as WBC counts; type: in vivo; conditions: Day 11
Experimental: C57BL/6 mice (n=10/dose group), treated i.p. 50 mg/kg MTX on Day 1, 2, 3, 4, 6 and 8 along with 60 mg/kg TK-1126901.p. 3 hr±MTX followed by single daily doses TK-112690 on days not treated with MTX. On Day 11, the animals were sacrificed and hematology performed on the resulting blood. Group 1=saline control, Group 2=MTX control and Group 3=MTX+TK-112690.
Several parameters have been examined in an effort to develop a model to confirm the protection from mucositis observed in the LPS/MTX assay. On examination of complete blood counts (CBCs), consistently elevated levels of white blood cell counts (WBCs) are observed when mice are treated with MTX (FIG. 4). This increase is not observed in animals that are also treated with TK-112690 (FIG. 4). […] LPS is a large molecule on the outer membrane of Gram negative bacteria. Tissues exposed to LPS express pro-inflammatory cytokines such as TNF-α and […]. Increases in these cytokines due to exposure of tissues to LPS generate an immune response which, in turn, increases WBCs.
For the study whose data are presented in FIG. 4, C57BL/6 mice (n=10/dose group) were treated i.p. with 50 mg/kg MTX on Day 1, 2, 3, 4, 6 and 8 along with 60 mg/kg TK-1126901.p. 3 hr±MTX followed by single daily doses TK-112690 on days not treated with MTX. On Day 11, the animals were bled and hematology performed on the resulting blood samples. […]

[2] = test system: Wild-type (Oregon-R) Drosophila melanogaster; assay: Fly Study II: MTX lethality in wild-type flies; type: in vivo; conditions: for MTX dose with lethal effects in wild-type flies: orally in food admix, scored 15 days after initiation
Experimental: as §1, §2

Row | Compound | viability, MTX alone vs cell control (CCRF-CEM cells; MTX 0.03 μM) | lethal effects of MTX in UPase knockout flies ([1]; MTX 0.001-0.4 mg orally) | systemic WBC (C57BL/6 mice; 50 mg/kg MTX ip Day 1, 2, 3, 4, 6 and 8) | MTX dose with lethal effects in wild-type flies [2] [mg] | MTX dose with lethal effects in wild-type flies ([2]; listed as Methotrexate) [mg] | effect on MTX cytotoxicity (viability, alamarBlue) (CCRF-CEM cells; combined with MTX 0.03 μM) | viability, agent alone vs control (CCRF-CEM cells; without MTX) | added protection from methotrexate toxicities in UPase mutant flies ([1]; TK-112690 added to dose range of methotrexate) | protection from MTX-induced mucositis measured as WBC counts (C57BL/6 mice; 60 mg/kg ip with MTX 50 mg/kg) | methotrexate dose from whose lethality protection is provided ([2]; 0.04 mg TK-112690) [mg] | protection of wild-type flies from lethal effects of MTX ([2]; 0.04 mg TK-112690, MTX 0.001-0.4 mg)
1 | CN(Cc1cnc2nc(N)nc(N)c2n1)c1ccc(C(=O)N[C@@H](CCC(=O)O)C(=O)O)cc1 [MTX, N-[4-[[(2,4-diamino-6-pteridinyl)methyl]methylamino]benzoyl]-L-glutamic acid, reference compound] | statistically significantly different from Group1 | resistant to lethal effects | increases systemic WBC | ≥ 0.1 | 0.1 |  |  |  |  |  | 
2 | Cc1cn2c(nc1=O)O[C@H]1[C@H](O)[C@@H](CO)O[C@H]12 [TK-112690, 2,2′-anhydro-5-methyluridine] |  |  |  |  |  | do not interfere with methotrexate cytotoxicity | not statistically different than control | does not provide added protection | protects from MTX-induced mucositis | ≤ 0.4 | resistant to the lethal effects
